Test results reported in publication PMC7577125 (Antimicrobial Agents and Chemotherapy, 2020).

Columns and labels:
HBV Cp Wild type = experiment: microbe, parasite or virus in culture; type: cell-based, Hepatitis B virus; settings: for EC50: Hepatitis B virus, Huh-7, read-out: Mean EC50; for Fold shift: Wild type
HBV [1] = experiment: Extracellular HBV DNA and pgRNA in HepAD38 cells (qPCR, RT-qPCR); type: cell-based, Hepatitis B virus; settings: HepAD38; concn ETV 0.01, ABI-H0731 2.0, GLS4 0.5, NVR 3-778 2.5, AT-130 0.8, VRD-32 0.8 μM
Source text: For HBV RNA Northern blot analysis, total cellular RNA or encapsidated pgRNA samples were resolved in a 1.5% agarose gel containing 2.2 M formaldehyde and transferred onto a Hybond-XL membrane (GE Healthcare). For DNA Southern blot analysis, HBV core DNA or cccDNA samples were resolved by electrophoresis in a 1.2% agarose gel and blotted onto a Hybond-XL membrane. Membranes were probed with either an [α-^32P]UTP (3,000 Ci/mmol; PerkinElmer)-labeled plus-strand-specific (for Northern blot hybridization) or minus-strand-specific (for Southern blot hybridization) HBV riboprobe and exposed to a phosphorimager screen. Extracellular HBV DNA and RNA were copurified from the culture medium of induced HepAD38 cells by using a MinElute virus vacuum kit (Qiagen). Viral DNA was quantified using the above-mentioned qPCR method directly, and HBV RNA was detected by RT-qPCR with the same core region primer/probe set after the removal of DNA contamination by DNase I (Thermo Fisher) treatment.

HBV Cp I105L = experiment: microbe, parasite or virus in culture; type: cell-based, Hepatitis B virus; settings: for EC50: Hepatitis B virus, Huh-7, read-out: Mean EC50; for Fold shift: I105L vs wild type
HBV Cp Y38C = experiment: microbe, parasite or virus in culture; type: cell-based, Hepatitis B virus; settings: for EC50: Hepatitis B virus, Huh-7, read-out: Mean EC50; for Fold shift: Y38C vs wild type
HBV [2] = experiment: HBV infection of primary human hepatocytes (PHHs); type: cell-based; settings: Hepatitis B virus, Hepatocyte, PHH
HBV Cp T33N = experiment: microbe, parasite or virus in culture; type: cell-based, Hepatitis B virus; settings: for EC50: Hepatitis B virus, Huh-7, read-out: Mean EC50; for Fold shift: T33N vs wild type
[3] = system: HBV (genotype D, subtype ayw); experiment: HBV replication assay in HepAD38 cells; type: cell-based, Hepatitis B virus; settings: Hepatitis B virus, HePAD38, HepAD38; total intracellular viral DNA; read-out: Mean EC50, viral DNA
HBV Cp T109I = experiment: microbe, parasite or virus in culture; type: cell-based, Hepatitis B virus; settings: for EC50: Hepatitis B virus, Huh-7, read-out: Mean EC50; for Fold shift: T109I vs wild type
HBV [4] = experiment: HBV infection of HepG2-NTCP cells; type: cell-based; settings: Hepatitis B virus
HBV Cp Y118F = experiment: microbe, parasite or virus in culture; type: cell-based, Hepatitis B virus; settings: for EC50: Hepatitis B virus, Huh-7, read-out: Mean EC50; for Fold shift: Y118F vs wild type
HBV Cp I105T = experiment: microbe, parasite or virus in culture; type: cell-based, Hepatitis B virus; settings: for EC50: Hepatitis B virus, Huh-7, read-out: Mean EC50; for Fold shift: I105T vs wild type
HBV Cp D29G = experiment: microbe, parasite or virus in culture; type: cell-based, Hepatitis B virus; settings: for EC50: Hepatitis B virus, Huh-7, read-out: Mean EC50; for Fold shift: D29G vs wild type
HBV Cp T109M = experiment: microbe, parasite or virus in culture; type: cell-based, Hepatitis B virus; settings: for EC50: Hepatitis B virus, Huh-7, read-out: Mean EC50; for Fold shift: T109M vs wild type
HBV Cp Y38F = experiment: microbe, parasite or virus in culture; type: cell-based, Hepatitis B virus; settings: for EC50: Hepatitis B virus, Huh-7, read-out: Mean EC50; for Fold shift: Y38F vs wild type
HBV [5] = experiment: HBV RNA/DNA analyses in induced HepAD38 cells (Northern/Southern blot); type: cell-based, Hepatitis B virus; settings: HepAD38, 10-fold over VR EC50
HBV Cp P25A = experiment: microbe, parasite or virus in culture; type: cell-based, Hepatitis B virus; settings: for EC50: Hepatitis B virus, Huh-7, read-out: Mean EC50; for Fold shift: P25A vs wild type
[6] = total intracellular viral DNA, read-out: Mean EC50, viral DNA

SMILES: CCOC(=O)C1=C(CN2CCOCC2)NC(c2nccs2)=NC1c1ccc(F)cc1Br (stereo not drawn) [GLS4]
- EC50 (HBV Cp Wild type): 17.9 ± 0.4 nM
- Extracellular DNA content (% of DMSO control) (HBV [1]): 0.1 % of DMSO control
- Extracellular pgRNA content (% of DMSO control) (HBV [1]): 0.1 % of DMSO control
- EC50 (HBV Cp I105L): 12 ± 6.5 nM
- EC50 (HBV Cp Y38C): 17 ± 9.5 nM
- EC50 (HBV [2]; read-out: EC50, HBeAg): 1480 nM
- EC50 (HBV [2]; read-out: EC50, HBsAg): 1860 nM
- EC50 (HBV [2]; read-out: EC50, pgRNA): 1930 nM
- EC50 (HBV [2]; [6]): 1940 nM
- EC50 (HBV Cp T33N): 6340 nM
- EC50 [3]: 29 ± 9 nM
- EC50 (HBV Cp T109I): 237 ± 16.6 nM
- EC50 (HBV [4]; read-out: EC50, HBeAg production): 550 nM
- EC50 (HBV [4]; read-out: EC50, HBsAg production): 670 nM
- EC50 (HBV [4]; read-out: EC50, pgRNA production): 280 nM
- EC50 (HBV [4]; read-out: Mean EC50, HBeAg): 549 ± 48 nM
- EC50 (HBV [4]; read-out: Mean EC50, HBsAg): 673 ± 41 nM
- EC50 (HBV [4]; read-out: Mean EC50, pgRNA): 279 ± 43 nM
- EC50 (HBV [4]; [6]): 58 ± 6 nM
- EC50 (HBV Cp Y118F): 84.7 ± 2.3 nM
- EC50 (HBV Cp I105T): 17 ± 2.7 nM
- EC50 (HBV Cp D29G): 16.1 ± 0.4 nM
- EC50 (HBV Cp T109M): 15 ± 5.6 nM
- EC50 (HBV Cp Y38F): 65 ± 17 nM
- Levels of encapsidated pgRNA by Northern blotting (HBV [5]): virtually undetectable
- rcDNA detection by Southern blot (HBV [5]): could not be detected
- EC50 (HBV Cp P25A): 451 ± 3.3 nM

SMILES: O=C(Nc1cc(F)c(F)c(F)c1)c1ccc(F)c(S(=O)(=O)N2CCC(O)CC2)c1 [NVR 3-778]
- EC50 (HBV Cp Wild type): 178 ± 42 nM
- Fold shift (HBV Cp Wild type): 1 fold
- Extracellular DNA content (% of DMSO control) (HBV [1]): 1.0 % of DMSO control
- Extracellular pgRNA content (% of DMSO control) (HBV [1]): 2.0 % of DMSO control
- EC50 (HBV Cp I105L): 127 ± 73 nM
- Fold shift (HBV Cp I105L): 0.7 fold
- EC50 (HBV Cp Y38C): 150 ± 48 nM
- Fold shift (HBV Cp Y38C): 0.8 fold
- EC50 (HBV [2]; read-out: Mean EC50, HBeAg): 4010 nM
- EC50 (HBV [2]; read-out: Mean EC50, HBsAg): 5040 nM
- EC50 (HBV [2]; read-out: Mean EC50, pgRNA): 4200 nM
- EC50 (HBV [2]; [6]): 1680 nM
- EC50 (HBV Cp T33N): > 10000 nM
- Fold shift (HBV Cp T33N): >56 fold
- EC50 [3]: 238 ± 33 nM
- EC50 (HBV Cp T109I): 77.4 ± 0.4 nM
- Fold shift (HBV Cp T109I): 0.4 fold
- EC50 (HBV [4]; read-out: Mean EC50, HBeAg): 8360 nM
- EC50 (HBV [4]; read-out: Mean EC50, HBsAg): 9260 nM
- EC50 (HBV [4]; read-out: Mean EC50, pgRNA): 7600 nM
- EC50 (HBV [4]; [6]): 590 ± 71 nM
- EC50 (HBV Cp Y118F): 887 ± 478 nM
- Fold shift (HBV Cp Y118F): 5 fold
- EC50 (HBV Cp I105T): 726 ± 98 nM
- Fold shift (HBV Cp I105T): 4.1 fold
- Fold shift (HBV Cp D29G): 1.2 fold
- EC50 (HBV Cp D29G): 210 ± 52 nM
- EC50 (HBV Cp T109M): 161 ± 97 nM
- Fold shift (HBV Cp T109M): 0.9 fold
- EC50 (HBV Cp Y38F): 208 ± 49 nM
- Fold shift (HBV Cp Y38F): 1.2 fold
- Levels of encapsidated pgRNA by Northern blotting (HBV [5]): virtually undetectable
- EC50 (HBV Cp P25A): 719 ± 58 nM
- Fold shift (HBV Cp P25A): 4 fold

SMILES: O=C1CO[C@H](c2cn(-c3ccc(F)cc3)nc2-c2ccc(F)cc2)N1CCc1ccc(O)cc1 [VRD-32]
- EC50 (HBV Cp Wild type): 16.1 ± 7.8 nM
- Fold shift (HBV Cp Wild type): 1 fold
- Extracellular DNA content (% of DMSO control) (HBV [1]): 0.3 % of DMSO control
- Extracellular pgRNA content (% of DMSO control) (HBV [1]): 0.9 % of DMSO control
- EC50 (HBV Cp I105L): 40 ± 19 nM
- Fold shift (HBV Cp I105L): 2.5 fold
- EC50 (HBV Cp Y38C): 20 ± 1.4 nM
- Fold shift (HBV Cp Y38C): 1.2 fold
- EC50 (HBV Cp T33N): 1290 nM
- Fold shift (HBV Cp T33N): 80 fold
- EC50 (HBV Cp T109I): 15.8 ± 1.9 nM
- Fold shift (HBV Cp T109I): 1 fold
- EC50 (HBV Cp Y118F): 805 ± 423 nM
- Fold shift (HBV Cp Y118F): 50 fold
- EC50 (HBV Cp I105T): 103 ± 87 nM
- Fold shift (HBV Cp I105T): 6.4 fold
- Fold shift (HBV Cp D29G): 0.9 fold
- EC50 (HBV Cp D29G): 13.8 ± 1 nM
- EC50 (HBV Cp T109M): 25 ± 23 nM
- Fold shift (HBV Cp T109M): 1.6 fold
- EC50 (HBV Cp Y38F): 20 ± 10 nM
- Fold shift (HBV Cp Y38F): 1.3 fold
- Levels of encapsidated pgRNA by Northern blotting (HBV [5]): virtually undetectable
- rcDNA detection by Southern blot (HBV [5]): could not be detected
- EC50 (HBV Cp P25A): 15.9 ± 0.04 nM
- Fold shift (HBV Cp P25A): 1 fold
